Assay results published in patent US20200108029A1, “METHODS AND SYSTEMS FOR TREATING OVERWEIGHT INDIVIDUALS” (LiveLight LLC, priority 2013, published 2020).
Read-outs that look alike come from different tables or passages of the source.

How the values were obtained:
[1] = tested on: patients in medical weight reduction; conditions: Truant, cited from earlier work
obesity patients = conditions: Munro, cited from earlier work
[2] = tested on: overweight (7) and obese (16) patients; assay: study of customized weekly dose patterns of moderate and low dose phentermine capsules; assay type: in vivo, human
Experimental: A study was performed including 23 overweight (7) and obese (16) patients whose average initial weight was 207 lb. Inclusion and exclusion criteria were similar to those of many published phentermine clinical trials. The patients were offered conventional dietary advice, provided meal replacements in the form of one to two commercial shakes (Usana Health Sciences, Salt Lake City, Utah), and were encouraged to exercise. Historical controls available from many published data about weight loss that involved dietary advice, meal replacement, and encouragement to exercise were used.
During the study, each patient was prescribed a customized dose pattern level of moderate capsules of phentermine and low dose capsules of phentermine that were provided on a biweekly basis in a 7-compartment blister pack where each blister contained a daily red capsule. The patient was instructed to take the appropriate daily capsule in the morning around breakfast time. The pack was labeled “each capsule contains up to 35 mg of phentermine.” In this example, each capsule contained 35 mg, 15 mg, 10 mg, 7.5 mg or 0 mg of phentermine in addition to inert excipients. The patients received two dose pattern weekly medications strips every two weeks.
In addition to the pills, patients were given a smartphone app or access to a browser-based reporting form where they could report their daily weight, drug compliance, hunger level, exercise level, and side effects experienced. The data was fed directly to a database, which was analyzed by the physician administering the trial and their assistant.
The algorithm for treatment included the following steps:
(1) Each patient was started on a weight loss dose pattern with a midlevel weekly phentermine dose pattern level 2 as shown in FIG. 2. […]
(2) The maximum tolerated weight loss dose pattern for the patient was determined by reviewing the patient's current dose level pattern and his or her electronically reported daily hunger level and side effects such as sleeplessness. […]

patients = assay: pooled previously published phentermine clinical trials (FIG. 1A); assay type: in vivo, human; conditions: dropouts included as having lost no net weight
Description: Studies using phentermine alone or phentermine mixed with a placebo have reported significant patient dropout rates in a typical 8-12 weeks phentermine clinical trial (Lucey et al “Chlorphentermine, A New ‘Appetite Suppressant,’ A Cross-Over Double-Blind Trial,” Ulster Med. J., 1962, pages 181-184 reports a 66% dropout rate, Kim et al., “Effects on Weight Reduction and Safety of Short-Term Phentermine Administration in Korean Obese People,” Yonsei Med J., 2006 Vol. 47, No. 5, pages 614-625 reports a 47% dropout rate, Truant reports a 66% dropout rate, Munro reports a 41% dropout rate, and Langlois et al., “A Double-Blind Clinical Evaluation of the Safety and Efficacy of Phentermine Hydrochloride (Fastin) in the Treatment of Exogenous Obesity,” Curr Ther Res Clin Exp., 1974, Vol. 16, No. 4, pages 289-296 reports a 41% dropout rate). For broad clinical adoption, the intent to treat weight loss, e.g., the average weight loss of all the patients that were enrolled in the study, is the key measure.
FIG. 1A is a table showing the results of various previously published clinical trials using phentermine.

## CC(C)(N)Cc1ccccc1 [phentermine, α-dimethyl-β-phenylethylamine]
[1]; phentermine for twelve weeks except placebo on weeks 4, 8, and 12
  weight lost: 16.6 lb
[1]; phentermine for twelve weeks
  weight lost: 18.8 lb
Obesity patients; 12-week treatment with weeks 4 through 8 on placebo versus phentermine for all 12 weeks
  average weight loss, intermittent versus continuous: lost as much weigh on average
Obesity patients; alternating monthly placebo/active trial, twelve weeks
  weight loss: 15 lbs
[2]; first 12 weeks, indicates tolerability of the regimen
  patients failing to complete the first 12 weeks in the program: None of the patients failed to complete the first 12 weeks
[2]; hunger and weight responsive patient-specific regimen, 12 weeks, intent to treat basis
  average twelve-week weight loss: 23 lb
[2]; once the initial dose was titrated
  reported side effects rate: Lower reported side effects rate
patients
  intent to treat weight loss: 9.0 lb
